From patent US4128638A, “Nona- and deca-peptide amide derivatives demonstrating high ovulation inducing activity” (ICI Australia Limited, priority 1975, dated 1978) come the findings set out here.

For experiment [1], the system named is androgen-sterilized, constant-oestrous rats. As to the kind of experiment: Ovulation induction in androgen-sterilized, constant-oestrous rats. Format: in vivo. The settings on record: intravenous dose/rat 0.25 μg. From the text:
This activity is exemplified in the table below:

For experiment [2], the system named is LH release from the pituitary gland of ovariectomized ewes. As to the kind of experiment: Bioassay for LH release in ovariectomized ewes (plasma LH by radioimmunoassay). Format: in vivo. Particulars: intravenous injection. How it is done: Each ewe was bled twice by jugular venipuncture before administration of the analogue, to establish basal levels of LH in plasma. Following intravenous injection of the appropriate analogue dissolved in saline solution (1 ml), blood samples were collected at intervals over the next three hours, centrifuged and subjected to radioimmunoassay for LH.

Structures are written as SMILES. Where a SMILES comes first, the peptide text is derived from it. [ ]: non-standard residue; d: D form. pGlu = O=C1CC[C@@H](C(=O)O)N1

Regarding `CC[C@H](C)[C@H](NC(=O)[C@@H](C)NC(=O)[C@H](Cc1ccc(O)cc1)NC(=O)[C@H](CO)NC(=O)[C@H](Cc1c[nH]c2ccccc12)NC(=O)[C@H](Cc1c[nH]cn1)NC(=O)[C@@H]1CCC(=O)N1)C(=O)N[C@@H](CCCNC(=N)N)C(=O)N1CCC[C@H]1C(=O)NCC(N)=O` [D-Ala^6 -Ile^7 -LHRH, L-Pyroglutamyl-L-histidyl-L-tryptophanyl-L-seryl-L-tyrosyl-D-alanyl-L-isoleucyl-L-arginyl-L-prolyl-glycinamide] ([pGlu]HWSY[dA]IRPG-NH2), in experiment [1], the Ovulating rats/group was 3/3. In the case of `CC(C)[C@H](NC(=O)[C@@H](C)NC(=O)[C@H](Cc1ccc(O)cc1)NC(=O)[C@H](CO)NC(=O)[C@H](Cc1c[nH]c2ccccc12)NC(=O)[C@H](Cc1c[nH]cn1)NC(=O)[C@@H]1CCC(=O)N1)C(=O)N[C@@H](CCCNC(=N)N)C(=O)N1CCC[C@H]1C(=O)NCC(N)=O` [D-Ala^6 -Val^7 -LHRH, L-pyroglutamyl-L-histidyl-L-tryptophanyl-L-seryl-L-tyrosyl-D-alanyl-L-valyl-L-arginyl-L-prolylglycinamide] ([pGlu]HWSY[dA]VRPG-NH2), the Ovulating rats/group in experiment [1] is 3/3. `CC(C)C[C@H](NC(=O)CCNC(=O)[C@H](Cc1ccc(O)cc1)NC(=O)[C@H](CO)NC(=O)[C@H](Cc1c[nH]c2ccccc12)NC(=O)[C@H](Cc1c[nH]cn1)NC(=O)[C@@H]1CCC(=O)N1)C(=O)N[C@@H](CCCNC(=N)N)C(=O)N1CCC[C@H]1C(=O)NCC(N)=O` [Example 1, L-Pyroglutamyl-L-histidyl-L-tryptophanyl-L-seryl-L-tyrosyl-β-alanyl-L- leucyl-L-arginyl-L-prolyl-glycinamide]: the “P* (maximal release of LH by the LHRH analogue at a given dose expressed as a percentage of the LH release by LHRH at the same dose)” value in experiment [2] (dose 2.5 μg) was determined as 97%; in experiment [2] (dose 25 μg), 108%.

Consider `CC(C)C[C@H](NC(=O)CNC(=O)[C@H](Cc1ccc(O)cc1)NC(=O)[C@H](CO)NC(=O)[C@H](Cc1c[nH]c2ccccc12)NC(=O)[C@H](Cc1c[nH]cn1)NC(=O)[C@@H]1CCC(=O)N1)C(=O)N[C@@H](CCCNC(=N)N)C(=O)N1CCC[C@H]1C(=O)NCCC(N)=O` [Example 2, L-Pyroglutamyl-L-histidyl-L-tryptophanyl-L-seryl-L-tyrosylglycyl-L-leucyl-L-arginyl-L-prolyl-β-alaninamide], for which the “P* (maximal release of LH by the LHRH analogue at a given dose expressed as a percentage of the LH release by LHRH at the same dose)” value in experiment [2] (dose 5 μg) was 12%; in experiment [2] (dose 50 μg), 75%. On the same counts, the results for `CC(C)C[C@H](NC(=O)CNC(=O)[C@H](Cc1ccc(O)cc1)NC(=O)[C@H](CO)NC(=O)[C@H](Cc1c[nH]c2ccccc12)NC(=O)[C@H](Cc1c[nH]cn1)NC(=O)[C@@H]1CCC(=O)N1)C(=O)N[C@@H](CCCNC(=N)N)C(=O)N1CCC[C@H]1C(=O)N(C)CC(N)=O` [Example 3, L-Pyroglutamyl-L-histidyl-L-tryptophanyl-L-seryl-L-tyrosylglycyl-L-leucyl-L-arginyl-L-prolysarcosinamide] are 70% and 45%. In the case of `CNC(=O)[C@@H]1CCCN1C(=O)[C@H](CCCNC(=N)N)NC(=O)[C@H](CC(C)C)NC(=O)CCNC(=O)[C@H](Cc1ccc(O)cc1)NC(=O)[C@H](CO)NC(=O)[C@H](Cc1c[nH]c2ccccc12)NC(=O)[C@H](Cc1c[nH]cn1)NC(=O)[C@@H]1CCC(=O)N1` [β-Ala^6 -des-Gly^10 -LHRH methylamide, L-Pyroglutamyl-L-histidyl-L-tryptophanyl-L-seryl-L-tyrosyl-β-alanyl-L- leucyl-L-arginyl-L-proline N-methylamide], in experiment [1], the Ovulating rats/group is 3/3. Still for that read-out and setting: next, `CCCNC(=O)[C@@H]1CCCN1C(=O)[C@H](CCCNC(=N)N)NC(=O)[C@H](CC(C)C)NC(=O)CCNC(=O)[C@H](Cc1ccc(O)cc1)NC(=O)[C@H](CO)NC(=O)[C@H](Cc1c[nH]c2ccccc12)NC(=O)[C@H](Cc1c[nH]cn1)NC(=O)[C@@H]1CCC(=O)N1` [β-Ala^6 -des-Gly^10 -LHRH n-propylamide, L-pyroglutamyl-L-histidyl-L-tryptophanyl-L-seryl-L-tyrosyl-β-alanyl-L- leucyl-L-arginyl-L-proline N-n-propylamide]: 5/6.

Turning to `CC(C)C[C@H](NC(=O)CCNC(=O)[C@H](Cc1ccc(O)cc1)NC(=O)[C@H](CO)NC(=O)[C@H](Cc1c[nH]c2ccccc12)NC(=O)[C@H](Cc1c[nH]cn1)NC(=O)[C@@H]1CCC(=O)N1)C(=O)N[C@@H](CCCNC(=N)N)C(=O)N1CCC[C@H]1C(=O)N1CCCC1` [β-Ala^6 -des-Gly^10 -LHRH pyrrolidide, L-Pyroglutamyl-L-histidyl-L-tryptophanyl-L-seryl-L-tyrosyl-β-alanyl-L- leucyl-L-arginyl-L-proline pyrrolidide], the Ovulating rats/group in experiment [1] is reported as 3/3. On the same count and under the same terms, the value for `CCNC(=O)[C@@H]1CCCN1C(=O)[C@H](CCCNC(=N)N)NC(=O)[C@H](CC(C)C)NC(=O)CCNC(=O)[C@H](Cc1ccc(O)cc1)NC(=O)[C@H](CO)NC(=O)[C@H](Cc1c[nH]c2ccccc12)NC(=O)[C@H](Cc1c[nH]cn1)NC(=O)[C@@H]1CCC(=O)N1` [β-Ala^6 des-Gly^10 -FHRH ethylamide, L-Pyroglutamyl-L-histidyl-L-tryptophanyl-L-seryl-L-tyrosyl-β-alanyl-L- leucyl-L-arginyl-L-proline N-ethylamide] was 3/3.
